The term Kd denotes a measure of binding affinity in units of concentration. A word on the IC50: it is the concentration needed to halve the response being measured.

Test [1] deals with p38α MAP kinase (Homo sapiens, UniProt Q16539). Put plainly: phosphorylation of myelin basic protein (MBP) by p38α. The test is classed as biochemical. As to the method: The TTM2001.101.A09 bi-ligand compound and the fragments from which it was constructed were tested as inhibitors of p38α enzymatic activity in an assay measuring phosphorylation of myelin basic protein (MBP) by p38α.
Chain of p38α MAP kinase (Q16539 whole entry, the tested form may be a part): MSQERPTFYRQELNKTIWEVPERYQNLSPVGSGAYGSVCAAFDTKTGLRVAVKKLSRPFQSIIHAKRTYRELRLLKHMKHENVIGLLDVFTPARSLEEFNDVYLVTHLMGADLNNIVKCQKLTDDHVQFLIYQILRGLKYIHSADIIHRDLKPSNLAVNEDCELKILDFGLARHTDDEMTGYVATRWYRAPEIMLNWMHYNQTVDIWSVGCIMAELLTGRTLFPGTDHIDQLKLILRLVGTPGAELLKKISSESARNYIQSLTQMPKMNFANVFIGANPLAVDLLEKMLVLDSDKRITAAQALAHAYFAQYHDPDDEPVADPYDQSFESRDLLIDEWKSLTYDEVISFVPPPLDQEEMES

Test [2] deals with ATP site of p38α (Homo sapiens, UniProt Q16539). Put plainly: fluorescence polarization displacement of fluorescently tagged staurosporine. It is filed as binding.
Chain of ATP site of p38α (Q16539 whole entry): as the sequence (Q16539 whole entry, the tested form may be a part) above
Test [3] concerns the target unactivated p38α MAP kinase (Homo sapiens, UniProt Q16539). Put plainly: WaterLOGSY screen of PBBA structure analogs. It is filed as binding. Particulars: 10 to 30 micromolar p38α, 0.1 to 1.0 millimolar compound, 4° C. The text has this: A library of 29 PBBA structure analogs was screened against unlabeled p38α MAP kinase (p38α) as follows. Samples containing 10 to 30 micromolar concentration of unactivated p38α MAP kinase and 0.1 to 1.0 millimolar concentration of one of the PBBA structure analogs were obtained. The samples were screened using WaterLOGSY with saturations times of 2 s (frequency selective excitation via a train of 232 6 ms it pulses with a GAUSS profile at an 80 Hz RF field strength) with […] using WATERGATE at 4° C. WaterLOGSY is further described in Dalvit et al. J. Biomol. NMR 21:349-59 (2001) Dalvit et al. J. Magn. Res. B112:282-288 (1996) and Dalvit et al., J. Biomol. NMR 11:437-444 (1998).

The target of test [4] is T1, p38α (Homo sapiens, UniProt Q16539). Put plainly: line broadening in 1D 1H NMR spectra. Particulars: 50 micromolar compound. More on the design: dose or concentration left out as unconfirmed. The test is classed as binding. As to the method: The ability of TTM2001.101.A09 to bind to p38α was determined by comparing the degree of line broadening in 1D ^1H NMR spectra for the compound in the presence of p38α compared to in the absence of p38α. […] (FIG. 4b) compared to the spectrum obtained for 50 micromolar of TTM2001.101.A09 in the absence of p38α (FIG. 4a), indicative of tight binding between p38α and TTM2001.101.A09.
T1 sequence (Q16539 whole entry): as the sequence (Q16539 whole entry, the tested form may be a part) above

For test [5], the target named is T1, p38α. Put plainly: WaterLOGSY competition experiments. The test is classed as binding. The text has this:
A peptide having the sequence […] (SEQ ID NO:1) is a known phosphorylation substrate for p38 as described, for example, in Chen et al. Biochemistry 39:2079-2087 (2000). […] This site is shown in the lower panel of FIG. 7, and is referred to as the SL (specificity ligand) site, since extending a bi-ligand library into this site off of an ATP mimic might provide additional specificity.

Chain of unactivated p38α MAP kinase (Q16539 whole entry): as the sequence (Q16539 whole entry, the tested form may be a part) above

Take `CCCCc1ccc(C(=O)O)cc1` [PBBA, p-butyl benzoic acid]: the “inhibition of phosphorylation of MBP protein by p38α” value in test [1] is given as “inhibit phosphorylation of MBP protein by p38α”. The “displacement of fluorescently tagged staurosporine” value in test [2] was “not able to displace a fluorescently tagged staurosporine”. The “cross-saturation effects with p38α (binding)” value in test [3] is recorded as “showed cross-saturation effects with p38α indicating binding to the protein”.

As to `O=C(O)c1ccc(CCCCCCSCc2cc(-n3cnc4cc(C(=O)O)ccc43)ccc2F)cc1` [TTM2001.101.A09], the “tighter than either of the starting fragments” value in test [1] (IC50 compared with starting fragments PBBA and TTM2001.082.B09) was “greater than 100 fold”. Besides, the Kd in test [1] (correction of the IC50 for high ATP concentration, read-out: Kd for binding between p38α and compound) was roughly 300 nM. This molecule also returned an IC50 in test [1] (inhibition of MBP phosphorylation by p38α) of 1700 nM. In addition, the “line broadening in presence of p38α (binding)” value in test [4] is “significant line-broadening”.

With “IPTTPITTTYFFFKKK [peptide, known phosphorylation substrate for p38]”, in test [5], the “displacement of PBBA from p38α” value is reported as “could not displace PBBA from p38α”.

Source of the values: US7964534B2, “Nuclear magnetic resonance assembly of chemical entities using advanced antenna probes” (Triad Liquidating Company, LLC, priority 2003, dated 2011).
